Experimental data from patent publication US7727516B2, “Reduction of hair growth” (The Procter & Gamble Company, priority 2006, dated 2010).

Legend:
[1] = tested on: Ki-67 immunoreactivity in the hair matrix and outer root sheath; test: Ki-67 immunofluorescence for proliferating cells in cultured hair follicles; format: cell-based, human; conditions: hair follicle treatment, concentration-dependent
Procedure: For detection of proliferating cells the indirect immunofluorescence protocol using rabbit monoclonal antibody against Ki-67. Eight […]m hair follicle sections were fixed in formalin and postfixed in ethanol/acetic acid. […] Counterstaining was performed using HOECHST 33342 dye ([…] in PBS; 10 minutes). Each phase was interspersed by a washing step (three times) in PBS. Finally, sections were mounted using VectaShield Vector Laboratories). All sections were examined under a Olympus BX 60 fluorescent microscope and photodocumented with the help of a digital image analysis system (CoolSnap™ cooled CCD camera, Alpha Innotech) To identify whether modulation of TRPM8 and TRPA1 activity could affect hair growth, their agonists were tested in the hair follicle culture model. Hair follicle treatment with 10 uM of menthol, icilin, and menthyl lactate, caused statistically significant hair growth inhibition by 40%, 45% and 60% respectively, compared to the control. […] Thus, activation of either TRPM8 or TRPA1 by a cooling agent leads to a significant reduction of hair growth rate in vitro.

[2] = tested on: human hair follicles in growth phase (anagen); test: Human hair follicle growth assay (hair follicle culture model); format: cell-based; conditions: follicle length day 6 minus day 0, statistically significant, read-out: hair growth inhibition compared to the control
Procedure: Human hair follicles in growth phase (anagen) were isolated from face-lift tissue (obtained from plastic surgeons). The skin was sliced into thin strips exposing 2-3 rows of follicles that could readily be dissected. Follicles were placed into William's E medium (Life Technologies, Gaithersburg, Md.) supplemented with 2 mM L-glutamine, 10 µg/ml insulin, 10 ng/ml hydrocortisone, and an antibiotic/antimicotic mixture as described in Philpott et al. (1990) J. Cell Sci. 97 (Pt3):463-71. The follicles were incubated in 24-well plates (1 follicle/well) at 37° C. in an atmosphere of 5% CO2 and 100% humidity for different periods of time (Philpott et al. (1990) supra). The length of hair follicle was assessed using an image analysis software system. To determine the effect of molecules modulating TRPM8/TRPA1 activity on hair growth, hair follicles were incubated with icilin (Tocris Bioscience) and L-Menthol, L-menthyl lactate (Sigma). Hair follicle images were taken in the 24-well plates under the dissecting scope under a power of 20×. Hair follicle length was measured on day 0 (day follicles were placed in culture) and again on day 6. The growth of hair fiber was calculated by the subtracting the follicle length on day 0 from that determined on day 6. To identify whether modulation of TRPM8 and TRPA1 activity could affect hair growth, their agonists were tested in the hair follicle culture model. Hair follicle treatment with 10 uM of menthol, icilin, and menthyl lactate, caused statistically significant hair growth inhibition by 40%, 45% and 60% respectively, compared to the control. […] Thus, activation of either TRPM8 or TRPA1 by a cooling agent leads to a significant reduction of hair growth rate in vitro.

[3] = tested on: human epidermal melanocytes; test: Western blot of melanogenic proteins in human epidermal melanocytes culture; format: cell-based; conditions: 10 uM, 48 hours
Procedure: Total cellular proteins of human melanocytes were harvested in a lysis buffer (Total protein extraction kit; CHEMICON International, Inc). Twenty […]g protein were loaded per lane, separated by 10% sodium dodecyl sulfate polyacrylamide gel electrophoresis, and transferred to nitrocellulose membrane at 100 V for 1 h. Following overnight blocking with 5% nonfat dry milk/bovine serum albumin (BSA) in Tris-phosphate-buffered saline (PBS) (0.5% Tween-20 in PBS) at 4° C., the membrane was incubated overnight with a monoclonal antibody against either tyrosinase or tyrosinase-related protein-1 or actin at a dilution of 1:1000. […] After extensive washing the membrane was incubated for 1 min with the enzyme-linked chemiluminescence Western Blotting Detection Reagent (Amersham, Buckinghamshire, U.K.), and bands were detected on preflashed Kodak X-Omat film and developed after several seconds of exposure.
To determine whether a TRPM8 and TRPA1 agonist can affect pigment producing activity of the melanocytes, expression of tyrosinase was analyzed in the hair follicles treated with 10 uM icilin by immunohistochemistry. […] A decrease in tyrosinase and tyrosinase-related protein (TRP)-1 expression levels were observed 48 hours after 10 uM icilin treatment, compared to the control, as determined by Western blot analysis. […]

[4] = tested on: tyrosinase expression in hair follicles; test: Tyrosinase immunohistochemistry in treated hair follicles; format: cell-based, human; conditions: 10 uM
Procedure: For the immunodetection of melanogenic proteins, sections were incubated with either mouse monoclonal antibody against human tyrosinase or chicken monoclonal antibody against human p-mel 17 (Neomarker and Zymed, respectively; 1:100, overnight), followed by incubation with TRITC-labeled […] (Jackson ImmunoResearch; 45 min, 37° C.) and FITC-labeled goat anti-chicken IgG, respectively. Next, sections were counterstained with Hoechst 33342 (1:300, 15 min) for identification of cell nuclei, and mounted using VectaShield (Vector Laboratories). All sections were examined under a Olympus BX 60 fluorescent microscope and photodocumented with the help of a digital image analysis system (CoolSnap™ cooled CCD camera, Alpha Innotech) To determine whether a TRPM8 and TRPA1 agonist can affect pigment producing activity of the melanocytes, expression of tyrosinase was analyzed in the hair follicles treated with 10 uM icilin by immunohistochemistry. Tyrosinase expression was decreased in treated hair follicles, compared to the control. In addition, the effects of icilin on melanogenic protein expression were tested in human epidermal melanocytes culture. A decrease in tyrosinase and tyrosinase-related protein (TRP)-1 expression levels were observed 48 hours after 10 uM icilin treatment, compared to the control, as determined by Western blot analysis. […]

Row | tyrosinase expression in treated hair follicles compared to the control [4] | SMILES | cell proliferation (Ki-67 immunoreactivity in hair matrix and outer root sheath) [1] | inhibition at 10 µM [2] [%] | tyrosinase expression level compared to the control [3] | tyrosinase-related protein (TRP)-1 expression level compared to the control [3]
1 | decreased | O=C1NC(c2cccc([N+](=O)[O-])c2)=CCN1c1ccccc1O [icilin, 1-(2-Hydroxyphenyl)-4-(3-nitrophenyl)-1,2,3,6-tetrahydropyrimidin-2-one] | inhibition of cell proliferation in a concentration-dependent manner | 45 | decrease | decrease
2 | – | CC1CCC(C(C)C)C(O)C1 (stereo not shown) [menthol] | – | 40 | – | –
3 | – | CC1CCC(C(C)C)C(OC(=O)C(C)O)C1 (stereo not shown) [menthyl lactate] | – | 60 | – | –
